Measurements reported in article PMC11726677, “Eradication of Therapy-Resistant Cancer Stem Cells by Novel Telmisartan Derivatives” (Journal of Medicinal Chemistry, 2024).
pEC50, pIC50: −log10 of the molar value.

Assays:
K562 cells = assay: Metabolic activity of TKI-sensitive K562 cells (MTT assay); type: cell-based, human; conditions: 10 μM, 72 h, alone
Protocol: Selectivity for therapy-resistant K562-R cells can be assessed by comparing the results with TKI-sensitive K562 cells.
(§1) COS-7 (2 × 10^3 cells per well), IGROV-1 SP (2.5 × 10^3 cells per well), A2780 V SP (1.5 × 10^3 cells per well), PC3-DR (4 × 10^3 cells per well), and DU145-DR (3 × 10^3 cells per well) cells were seeded in 96-well plates in triplicates and after 24 h, the compounds were added at the respective concentrations. K562-R and K562 cells (2 × 10^4 cells per well), were treated with the compounds 2 h after seeding. […] A modified MTT colorimetric assay (EZ4U kit, Biomedica) was used to determine the metabolic activity of the tested cells, according to the manufacturer’s instructions. Absorbance was measured and the optical density of the respective FCS-containing medium and of the substrate was subtracted to exclude nonspecific staining. Metabolic activity in the absence of the compounds (CTR, DMSO) was set to 100% as reference.

K562-R cells [1] = assay: Chemosensitizing: metabolic activity of K562-R cells cotreated with imatinib (modified MTT assay); type: cell-based, human; conditions: 72 h; for chemosensitizing effect, concentration-dependent analysis / pEC50: K562-R, + imatinib 1 μM; for chemosensitizing effect, concentration-dependent analysis: 0.5–8 μM (transporter inhibitors 10 to 0.5 μM); for pEC50: read-out: SC50 (drug concentration eliciting 50% of the maximum sensitizing effect)
Protocol: (§2) The potential reduction in cell viability was determined using the modified MTT assay.
conc. 10 to 0.5 μM) over 72 h (Figure 3D).
as §1

K562-R cells [2] = assay: Metabolic activity of K562-R cells, compounds alone (modified MTT assay); type: cell-based, human; conditions: 72 h; for metabolic activity of K562-R cells, compound alone: 10 μM, without imatinib, vehicle control = 100%; for viability at 10 µM: Homo sapiens, K-562R, read-out: metabolic activity of K562-R cells, compound alone
Protocol: as §2
First, the compounds (10 μM) were applied alone to evaluate their effects per se.
as §1

[3] = biological target: ABCB1 transporter in K562-R cells (Homo sapiens, UniProt P08183); assay: Side population (SP) analysis, DCV staining, flow cytometry; conditions: 10 μM
Protocol: SP analyses were performed as previously described[45] on a LSRFortessa flow cytometer (BD Biosciences, Vienna, Austria). Briefly, 1 × 10^6 cells/mL were stained with 10 μM Vybrant DyeCycleTM Violet (DCV; Molecular Probes, Eugene, OR) in the presence or absence of the investigated compounds for 90 min at 37 °C. […] Subsequently, the cells were washed and immediately analyzed using flow cytometry. The FlowJo 9.6 software was used for data analyses (Tree Star Software, Ashland, CA).

ABCB1 [4] = assay: Jess Simple Western immunoassay of ABCB1 expression in K562-R cells; type: cell-based, human; conditions: 4 μM, 72 h
Protocol: (§3) Protein extracts were prepared as previously described.[44] Protein expression was determined using the capillary-based Jess Simple Western detection system (ProteinSimple, BioTechne) according to the manufacturer’s instructions at default settings. […] Horseradish peroxidase (HRP)-conjugated secondary antirabbit antibody, which was included in the Jess Detection Module kit, was used. Data analysis was conducted using Compass for Simple Western 4.0 software (ProteinSimple, BioTechne).

STAT5 = assay: Jess Simple Western immunoassay of STAT5/pSTAT5 in K562-R cells; type: cell-based, human
Protocol: In the next step, the effects of the compounds (4 μM) on STAT5 in K562-R cells were examined.
as §3

DU145-DR cells = assay: Chemosensitizing to docetaxel: metabolic activity of DU145-DR cells (MTT); type: cell-based, human; conditions: DTX 12.5 nM, 72 h, compared to solvent control
Protocol: (§4) The chemosensitizing efficacy was investigated in the ovarian and prostate cancer cell lines using the above-described metabolic activity assay. Paclitaxel (PTX) served as a reference (CTR) in A2780 V SP and IGROV-1 SP cells and docetaxel (DTX) in PC3-DR and D145-DR cells.
as §1

PC3-DR cells = assay: Chemosensitizing to docetaxel: metabolic activity of PC3-DR cells (MTT); type: cell-based, human; conditions: DTX 12.5 nM, 72 h, compared to solvent control
Protocol: as §4, §1

ABCB1 [5] = test system: ABCB1; design: method as in Weiss et al. 38; conditions: ref Weiss et al. 38; cited from earlier work
IGROV-1 SP cells = assay: Chemosensitizing to paclitaxel: metabolic activity of IGROV-1 SP cells (MTT); type: cell-based, human; conditions: PTX 10 nM, 72 h, compared to solvent control
Protocol: as §4, §1

A2780 V SP cells = assay: Chemosensitizing to paclitaxel: metabolic activity of A2780 V SP cells (MTT); type: cell-based, human
Protocol: as §4, §1

Chain of ABCB1 transporter in K562-R cells (P08183 whole entry): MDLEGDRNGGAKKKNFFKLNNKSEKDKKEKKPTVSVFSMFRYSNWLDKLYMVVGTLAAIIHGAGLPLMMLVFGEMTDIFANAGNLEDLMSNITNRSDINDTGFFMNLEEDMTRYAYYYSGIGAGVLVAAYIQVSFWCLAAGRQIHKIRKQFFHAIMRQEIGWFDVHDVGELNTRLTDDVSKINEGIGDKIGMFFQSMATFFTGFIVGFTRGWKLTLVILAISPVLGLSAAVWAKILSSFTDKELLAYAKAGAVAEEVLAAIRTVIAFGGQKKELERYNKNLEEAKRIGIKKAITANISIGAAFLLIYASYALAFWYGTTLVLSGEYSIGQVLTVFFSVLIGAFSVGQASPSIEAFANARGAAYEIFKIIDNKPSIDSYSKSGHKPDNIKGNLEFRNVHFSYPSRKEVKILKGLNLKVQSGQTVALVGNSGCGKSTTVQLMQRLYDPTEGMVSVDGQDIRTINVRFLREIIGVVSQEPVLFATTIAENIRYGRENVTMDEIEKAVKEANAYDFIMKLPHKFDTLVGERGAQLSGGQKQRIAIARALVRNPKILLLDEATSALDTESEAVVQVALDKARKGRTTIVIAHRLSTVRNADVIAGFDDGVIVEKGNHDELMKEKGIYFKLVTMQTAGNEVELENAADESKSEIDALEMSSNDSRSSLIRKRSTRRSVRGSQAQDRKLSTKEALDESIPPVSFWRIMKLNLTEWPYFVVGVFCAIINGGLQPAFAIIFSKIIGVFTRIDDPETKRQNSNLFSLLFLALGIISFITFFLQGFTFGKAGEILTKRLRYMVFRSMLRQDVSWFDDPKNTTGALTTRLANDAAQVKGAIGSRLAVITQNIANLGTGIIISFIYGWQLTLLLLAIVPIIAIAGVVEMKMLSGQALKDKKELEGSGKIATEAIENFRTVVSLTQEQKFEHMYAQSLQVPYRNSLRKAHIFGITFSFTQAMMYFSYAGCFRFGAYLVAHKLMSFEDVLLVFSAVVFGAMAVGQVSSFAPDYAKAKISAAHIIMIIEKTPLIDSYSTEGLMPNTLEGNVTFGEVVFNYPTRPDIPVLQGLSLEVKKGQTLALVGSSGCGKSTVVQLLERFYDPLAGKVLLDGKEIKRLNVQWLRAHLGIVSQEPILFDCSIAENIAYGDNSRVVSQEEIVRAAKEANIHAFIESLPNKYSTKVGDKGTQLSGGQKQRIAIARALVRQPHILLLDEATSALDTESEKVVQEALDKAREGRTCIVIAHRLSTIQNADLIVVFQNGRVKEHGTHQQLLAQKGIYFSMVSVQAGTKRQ

C/C=C/C[C@@H](C)C(=O)[C@H]1C(=O)N[C@@H](C(C)C)C(=O)N(C)CC(=O)N(C)[C@@H](CC(C)C)C(=O)N[C@@H](C(C)C)C(=O)N(C)[C@@H](CC(C)C)C(=O)N[C@@H](C)C(=O)N[C@H](C)C(=O)N(C)[C@@H](CC(C)C)C(=O)N(C)[C@@H](CC(C)C)C(=O)N(C)[C@@H](C(C)C)C(=O)N1C [valspodar, reference compound]
metabolic activity of K562 cells (K562 cells): did not affect the viability
chemosensitizing effect, concentration-dependent analysis (K562-R cells [1]): sensitized the cells similarly to the derivatives 4b, 5c, 6b, 6c
metabolic activity of K562-R cells, compound alone (K562-R cells [2]): did not affect the viability

CCCc1nc2ccccc2n1Cc1cccc(C(=O)OC)c1 [2b, Methyl 3-((2-propyl-1H-benzo[d]imidazole-1-yl)methyl)benzoate]
metabolic activity of K562-R cells, combination with imatinib (K562-R cells [1]; compound 8 μM + imatinib 1 μM): 44–57%
metabolic activity of K562-R cells, combination with imatinib (K562-R cells [1]; compound 10 μM + imatinib 1 μM): 34–58%
effect on SP phenotype / ABCB1 activity [3]: had no significant impact on the SP
viability at 10 µM (K562-R cells [2]): < 70%

CCCc1nc2ccccc2n1Cc1ccc(-c2ccc(C(=O)OC)cc2)cc1 [6b, Methyl 4′-((2-propyl-1H-benzo[d]imidazole-1-yl)methyl)-[1,1′-biphenyl]-4-carboxylate]
metabolic activity of K562 cells (K562 cells): ≥ 65%
pEC50 (K562-R cells [1]): 5.93
metabolic activity of K562-R cells, combination with imatinib (K562-R cells [1]; compound 10 μM + imatinib 1 μM): 8–24%
effect on SP phenotype / ABCB1 activity [3]: efficiently reduced the ABCB1 activity
relation of SP and NSP [3]: about 50%
ABCB1 protein expression (ABCB1 [4]): none of the compounds abrogated the ABCB1 protein expression
viability at 10 µM (K562-R cells [2]): 75 to 80%
phosphorylation of STAT5 (STAT5; 4 μM + imatinib 1 μM, 6 h): marked repression of the STAT5 phosphorylation

CCCc1nc2ccccc2n1Cc1ccc(-c2cccc(C(=O)OC)c2)cc1 [5b, Methyl 4′-((2-propyl-1H-benzo[d]imidazole-1-yl)methyl)-[1,1′-biphenyl]-3-carboxylate]
metabolic activity of K562 cells (K562 cells): ≥ 65%
metabolic activity of K562-R cells, combination with imatinib (K562-R cells [1]; compound 10 μM + imatinib 1 μM): 34–58%
viability at 10 µM (K562-R cells [2]): < 70%

CC(=O)O[C@@]12CO[C@@H]1C[C@H](O)[C@@]1(C)C(=O)[C@H](O)C3=C(C)[C@@H](OC(=O)[C@H](O)[C@@H](NC(=O)OC(C)(C)C)c4ccccc4)C[C@@](O)([C@@H](OC(=O)c4ccccc4)[C@H]21)C3(C)C [DTX, docetaxel, reference compound]
metabolic activity of treated cells, DTX alone (DU145-DR cells): > 80%
metabolic activity of treated cells, DTX alone (PC3-DR cells): > 80%

CCCc1nc2ccccc2n1Cc1ccccc1C(=O)OC [1b, Methyl 2-((2-propyl-1H-benzo[d]imidazole-1-yl)methyl)benzoate]
metabolic activity of K562-R cells, combination with imatinib (K562-R cells [1]; compound 8 μM + imatinib 1 μM): 44–57%
metabolic activity of K562-R cells, combination with imatinib (K562-R cells [1]; compound 10 μM + imatinib 1 μM): 34–58%
effect on SP phenotype / ABCB1 activity [3]: had no significant impact on the SP
ABCB1 protein expression (ABCB1 [4]): none of the compounds abrogated the ABCB1 protein expression
viability at 10 µM (K562-R cells [2]): < 70%
phosphorylation of STAT5 (STAT5; 4 μM + imatinib 1 μM, 6 h): hardly triggered any change in the expression of pSTAT5
phosphorylation of STAT5 (STAT5; 4 μM alone, 72 h): prevented the activation of STAT5

CCCc1nc2ccccc2n1Cc1ccccc1C(N)=O [1c, 2-((2-Propyl-1H-benzo[d]imidazole-1-yl)methyl)benzamide]
metabolic activity of K562-R cells, combination with imatinib (K562-R cells [1]; compound 10 μM + imatinib 1 μM): could not be increased
viability at 10 µM (K562-R cells [2]): 75 to 80%

COc1cc2c(cc1OC)CN(CCc1ccc(NC(=O)c3cccc4c(=O)c5cccc(OC)c5[nH]c34)cc1)CC2 [elacridar, reference compound]
metabolic activity of K562 cells (K562 cells): did not affect the viability
chemosensitizing effect, concentration-dependent analysis (K562-R cells [1]): comparable to telmi-ester (7b)
ABCB1 protein expression (ABCB1 [4]): none of the compounds abrogated the ABCB1 protein expression
metabolic activity of K562-R cells, compound alone (K562-R cells [2]): did not affect the viability
phosphorylation of STAT5 (STAT5; 4 μM + imatinib 1 μM, 6 h): hardly triggered any change in the expression of pSTAT5
phosphorylation of STAT5 (STAT5; 4 μM alone, 72 h): did not influence the phosphorylation of STAT5

CCCCC1=NC2(CCCC2)C(=O)N1Cc1ccc(-c2ccccc2-c2nnn[nH]2)cc1 [irbesartan]
inhibition of ABCB1 (ABCB1 [5]): only slightly

CC(=O)O[C@H]1C(=O)[C@@]2(C)[C@H]([C@H](OC(=O)c3ccccc3)[C@]3(O)C[C@H](OC(=O)[C@H](O)[C@@H](NC(=O)c4ccccc4)c4ccccc4)C(C)=C1C3(C)C)[C@]1(OC(C)=O)CO[C@@H]1C[C@@H]2O [PTX, paclitaxel]
metabolic activity of treated cells, PTX alone (IGROV-1 SP cells): > 80%
pIC50 (A2780 V SP cells; Homo sapiens, PTX 0–300 nM, read-out: IC50 (PTX), PTX alone): 6.78
metabolic activity of treated cells, PTX alone (A2780 V SP cells; PTX 10 nM, 72 h, compared to solvent control): > 80%

CCCc1nc2ccccc2n1Cc1cccc(C(N)=O)c1 [2c, 3-((2-Propyl-1H-benzo[d]imidazole-1-yl)methyl)benzamide]
metabolic activity of K562-R cells, combination with imatinib (K562-R cells [1]; compound 10 μM + imatinib 1 μM): could not be increased

CCCc1nc2ccccc2n1Cc1ccc(C(=O)OC)cc1 [3b, Methyl 4-((2-propyl-1H-benzo[d]imidazole-1-yl)methyl)benzoate]
metabolic activity of K562-R cells, combination with imatinib (K562-R cells [1]; compound 8 μM + imatinib 1 μM): 44–57%
metabolic activity of K562-R cells, combination with imatinib (K562-R cells [1]; compound 10 μM + imatinib 1 μM): 34–58%
effect on SP phenotype / ABCB1 activity [3]: had no significant impact on the SP

CCCc1nc2ccccc2n1Cc1ccc(-c2ccccc2C(=O)OC)cc1 [4b, Methyl 4′-((2-propyl-1H-benzo[d]imidazole-1-yl)methyl)-[1,1′-biphenyl]-2-carboxylate]
metabolic activity of K562 cells (K562 cells): ≥ 65%
pEC50 (K562-R cells [1]): 5.91
metabolic activity of K562-R cells, combination with imatinib (K562-R cells [1]; compound 10 μM + imatinib 1 μM): 8–24%
effect on SP phenotype / ABCB1 activity [3]: efficiently reduced the ABCB1 activity
relation of SP and NSP [3]: about 50%
ABCB1 protein expression (ABCB1 [4]): none of the compounds abrogated the ABCB1 protein expression
viability at 10 µM (K562-R cells [2]): < 70%
phosphorylation of STAT5 (STAT5; 4 μM + imatinib 1 μM, 6 h): hardly triggered any change in the expression of pSTAT5
phosphorylation of STAT5 (STAT5; 4 μM alone, 72 h): prevented the activation of STAT5

CCCc1nc2ccccc2n1Cc1ccc(C(N)=O)cc1 [3c, 4-((2-Propyl-1H-benzo[d]imidazole-1-yl)methyl)benzamide]
metabolic activity of K562-R cells, combination with imatinib (K562-R cells [1]; compound 10 μM + imatinib 1 μM): could not be increased
